Test results: patent US7511119B2, “PRAME peptide analogues” (MannKind Corporation, priority 2005, dated 2009)
Square brackets hold non-standard residues; d marks the D form. Ends that are not written are not given here. Nle = CCCC[C@H](N)C(=O)O; Nva = CCC[C@H](N)C(=O)O

What was measured:
[1] = target: T1, HLA-A*0201 (Homo sapiens, UniProt P04439, D140Y/D185E/D98H/E176V/E277Q/G131W/G231S/I119V/I121R/I166T/I218V/L300P/L318F/N151K/N90K/P208A/P217A/Q86G/Q94H/R138H/R169H/T345S); experiment: Peptide binding using T2 cells; settings: compared with wild-type peptide;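 further: Read-out is peptide-induced stabilization of HLA-A*0201 on the cell surface, reflecting mainly Kon at limiting peptide levels and both Kon and Koff at saturating levels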
Description: Thus, at limiting concentrations of peptide, it is a measurement of Kon mostly and at saturation levels of peptide it is a measurement of both Kon and Koff.
Thus, at limiting concentrations of peptide, this is a measurement of Kon mostly and at saturation levels of peptide that is a measurement of both Kon and Koff.

[2] = system: native PSMA288-297 peptide; experiment: Cross-reactive immunogenicity of PSMA analogs, IFN-gamma ELISPOT; type: in vivo, HHD transgenic mice; settings: peptide plus pI:C intranodal; FIG. 22
Method: Groups of HHD transgenic mice (n=8) were immunized with peptide (natural epitope PSMA288-297, or analogs bearing substitutions at primary or secondary anchor residues) by direct inoculation into the inguinal lymph nodes, with 25 μg in 25 μl of PBS+12.5 μg of pI:C to each lymph node at day 0, 3, 14 and 17.
Mice were sacrificed at 10 days after the last boost, and splenocytes prepared and assessed for IFN-γ production by ELISPOT analysis. […] At 48 hours after incubation, the assay was developed and the frequency of cytokine-producing T cells that recognized native PSMA288-297 peptide was automatically counted. The data is represented in FIG. 22 as the number of spot forming colonies/well (mean of triplicates±SD). […] To the extent that the poor immunogenicity of the native epitope reflects tolerance, the improved activity of these analogs represents tolerance breaking.

[3] = system: LnCap cells; experiment: Ex vivo cytotoxicity against PSMA+ A2+ human tumor cells; type: in vivo; settings: splenocytes restimulated ex vivo with native PSMA288-297
Method: HHD transgenic mice (n=4) were immunized with PSMA288-297 peptide (25 μg in 25 μl of PBS, plus 12.5 μg of pI:C to each lymph node) at day 0, 3, 14 and 17. One week after the boost, splenocytes were stimulated ex vivo with the native PSMA288-297 peptide and tested against ^51Cr-labeled human tumor cells (PSMA^+ A2^+ LnCap cells, or as negative control, LnCap cells coated with MHC class I-blocking antibody) at various E:T ratios.
HHD transgenic mice (n=4) were immunized with plasmid expressing the PSMA288-297 epitope by direct inoculation into the inguinal lymph nodes with 25 μg in 25 μl of PBS to each lymph node at day 0, 3, 14 and 17. This was followed by two peptide boosts (same amount) at day 28 and 31, with the analog I297V. One week after the boost, splenocytes were stimulated ex vivo with the native PSMA288-297 peptide and tested overnight against ^51Cr-labeled human tumor cells (Lncap, A2^+ PSMA^+; or 624.38 A2^+ PSMA^− or control 624.28 cells A2^− PSMA^−) at various E:T ratios.

[4] = system: T2 cells; experiment: Ex vivo cytotoxicity against 51Cr-labeled T2 target cells after plasmid prime and peptide boost; type: in vivo, mice; settings: plasmid prime, peptide boost; splenocytes restimulated ex vivo; FIG. 8
Method: Three groups of mice (n=4) were immunized with a plasmid expressing SSX-241-49 natural epitope by direct inoculation into the inguinal lymph nodes with 25 μg in 25 μl of PBS/each lymph node at day 0, 3, 14 and 17. This was followed by two additional peptide boosts (similar amount) at day 28 and 31. One week after the boost, splenocytes were stimulated ex vivo with SSX-241-49 natural peptide and tested against ^51Cr-labeled target cells (T2 cells) at various E:T ratios (FIG. 8). […] This correlated with the binding and stability parameters determined by ex vivo experimentation.

[5] = system: T cell lines against natural epitope SSX-241-49; experiment: Cross-reactivity and functional avidity: IFN-gamma production by T cell lines raised against natural SSX-2 41-49; type: cell-based, HHD transgenic mice; settings: T cells raised to native peptide tested on analogs; footnote * and unit not given;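 further: analogs presented ex vivo by competent APCs to T cells specific for the non-mutated epitope, scored by lowest activating concentration, peak cytokine effect and concentration at that peak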
[6] = system: target cells coated with natural peptide; experiment: In vivo cytotoxicity against splenocytes coated with natural SSX-2 41-49 peptide (CFSE); design: species or system HHD mice; settings: spleen and blood; targets coated with 20 μg/ml and 1 μg/ml natural peptide
Method: Eight groups of mice (n=4) were immunized with plasmid expressing SSX-241-49 natural epitope, by direct inoculation into the inguinal lymph nodes with 25 μg in 25 μl of PBS/each lymph node at day 0, 3, 14 and 17. This was followed by two additional peptide boosts (similar amount) at day 28 and 31, using a negative control peptide (Melan A 26-35 “EAA”), natural peptide or analogs as shown in FIG. 9.
To evaluate the in vivo response against natural peptide, splenocytes were isolated from littermate control HHD mice and incubated with 20 μg/mL or 1 μg/ml of natural peptide for 2 hours. These cells were then stained with CFSE^hi fluorescence (4.0 μM or […] for 15 minutes) and intravenously co-injected into immunized mice with an equal number of control splenocytes stained with CFSE^lo fluorescence (0.4 μM). Eighteen hours later the specific elimination of target cells was measured by removing spleen and PBMC from challenged animals and measuring CFSE fluorescence by flow cytometry. The relative depletion of the populations corresponding to peptide loaded splenocytes was calculated relative to the control (unloaded) population and expressed as % specific lysis. FIG. 10 (spleen) and 11 (blood) show the in vivo cytotoxicity elicited by the regimens described in FIG. 7.

[7] = system: 624.38 melanoma cells; experiment: Ex vivo cytotoxicity against human tumor cells after boost with SSX-2 analogs; type: in vivo; settings: plasmid prime, peptide boost; FIG. 12
Method: Eight groups of mice (n=4) were immunized with plasmid expressing SSX-241-49 natural epitope by direct inoculation into the inguinal lymph nodes with 25 ug in 25 ul of PBS/each lymph node at day 0, 3, 14 and 17. This was followed by two additional peptide boosts (similar amount) at day 28 and 31, using a negative control peptide (Melan A 26-35 “EAA”), natural peptide or analogs as shown in FIG. 9.

[8] = system: PSMA288-297 peptide; experiment: Plasmid prime, peptide boost, IFN-gamma ELISPOT (PSMA288-297); type: in vivo, HHD transgenic mice; settings: versus natural peptide boost, FIG. 23
Method: Two groups of HHD transgenic mice (n=8) were immunized with plasmid expressing PSMA288-297 by direct inoculation into the inguinal lymph nodes with 25 μg in […] of PBS to each lymph node at day 0, 3, 14 and 17. This was followed by two peptide boosts (25 μg) at day 28 and 31 with either the natural peptide or the I297V analog.
Mice were sacrificed at 10 days after the last boost, and splenocytes prepared and assessed for IFN-γ production by ELISPOT analysis. […] At 48 hours after incubation, the assay was developed and the frequency of cytokine-producing T cells that recognized the PSMA288-297 peptide was automatically counted. The data is represented in FIG. 23 as frequency of specific T cells normalized to 0.5 million responder cells (mean of triplicates+SD).

[9] = system: 624.38 cells; experiment: Ex vivo cytotoxicity against human tumor cells after boost with tyrosinase analogs; type: in vivo; settings: pSEM prime, peptide boost; FIG. 41
Method: HHD transgenic mice (n=4/group) were immunized (according to the general protocol in FIG. 40) with plasmid (pSEM) expressing the Tyrosinase369-377 epitope by direct inoculation into the inguinal lymph nodes of 25 μg of plasmid in 25 μl of PBS per lymph node at day 0, 3, 14 and 17. […] One week after the boost, splenocytes were stimulated ex vivo with the native Tyrosinase369-377 peptide and assayed against ^51Cr-labeled human tumor cells (624.38 cells) at various E:T ratios. […] Together with the preceding example, this observation illustrates the usefulness of complementing more stringent assays (in vivo cytotoxicity and tetramer staining) with more sensitive assays (ex vivo cytotoxicity after in vitro stimulation) to outline potentially useful analogs.

[10] = system: native peptide loaded splenocytes; experiment: In vivo cytotoxicity against native PRAME peptide-loaded splenocytes (CFSE); design: species or system HHD transgenic mice; settings: pCTLR2 prime, peptide boost; FIGS. 30-31
[11] = target: T2, A0201 restricted MHC Class 1 molecules (Homo sapiens, UniProt P04439, D140Y/D185E/D98H/E176V/E277Q/G131W/G231S/I119V/I121R/I166T/I218V/N151K/N90K/P208A/P217A/Q86G/Q94H/R138H/R169H); experiment: iTopia binding assay (% binding); settings: compared with the native peptide
Description: (§1) Avidin-coated microtiter plates containing class I monomer loaded with a so-called placeholder peptide were used to evaluate peptide binding, affinity and off-rate. […] Assay buffers, anti-MHC-FITC mAb and beta2-microglobulin and control peptides were also supplied with the kits.
This assay measures the ability of individual peptides to bind HLA molecules under standardized optimal binding conditions. Monomer-coated plates were first stripped, releasing the placeholder peptide and leaving only the MHC heavy chain bound to the plate. Test peptides were then introduced under optimal folding conditions, along with the anti-MHC-FITC mAb. […] The anti-MHC-FITC mAb binds preferentially to a refolded MHC complex. Therefore, the fluorescence intensity resulting from each peptide was related to the peptide's ability to form complex with MHC molecule. Each peptide's binding was evaluated relative to the positive control peptide provided in the kit, and the results were expressed “% binding”.

[12] = target: T1, HLA-A*0201; experiment: iTopia affinity assay (ED50); type: binding; settings: PRAME425-433 analogs; affinity lower than native
Description: Avidin-coated microtiter plates containing class I monomer loaded with a so-called placeholder peptide were used to evaluate peptide binding, affinity and off-rate. The monomer-coated plates were supplied as part of the iTopia Epitope Discovery System Kit (Beckman Coulter, Inc., San Diego, Calif., USA). Assay buffers, anti-MHC-FITC mAb and beta2-microglobulin and control peptides were also supplied with the kits.
Plates were read on the fluorometer. Sigmoidal dose response curves were generated using Prism software.

[13] = system: 624.38 melanoma cells; experiment: Ex vivo cytotoxicity against PRAME+ A2+ human tumor cells; type: in vivo; settings: splenocytes restimulated ex vivo with native PRAME peptide
Method: This was followed by two peptide boosts (2.5 μg) at day 28 and 31, with the analog L426Nva L433Nle.

[14] = system: PRAME425-433-specific T cells; experiment: Tetramer/CD8 co-staining of PRAME425-433-specific T cells; type: in vivo, HHD transgenic mice; settings: versus boost with negative control peptide; FIG. 31
[15] = target: T2, A0201 restricted MHC Class 1 molecules; experiment: iTopia off-rate assay (T1/2); type: binding; settings: compared with the respective native peptide
Method: as §1
The plates were then incubated on the allele-specific monomer plates at 37° C. The plates were measured at multiple time points (0, 0.5, 1, 1.5, 2, 4, 6 and 8 hrs) for relative fluorescence intensity. The time required for 50% of the peptide to dissociate from the MHC monomer is defined as the T1/2 value (hrs).
The binding and offrate (T1/2) was determined for six native epitopes and their analogs which were designed to enhance the immune response.

[16] = system: target cells coated with wild-type peptide; experiment: In vivo cytotoxicity against wild-type NY-ESO-1 peptide-coated target cells; design: species or system HHD mice; settings: plasmid entrain, peptide amplify; FIGS. 15-16
Method: These cells were then stained with CFSE^hi and CFSE^med fluorescence (4.0 μM or 1 μM, respectively, for 15 minutes) and intravenously co-injected into immunized mice with an equal number of control splenocytes stained with CFSE^lo fluorescence (0.4 μM). Eighteen hours later the specific elimination of target cells was measured by removing the spleens and PBMC from challenged animals and measuring CFSE fluorescence by flow cytometry. The relative depletion of the populations corresponding to peptide loaded splenocytes was calculated relative to the control (unloaded) population and expressed as % specific lysis.

[17] = system: splenocytes; experiment: Ex vivo IFN-gamma production after re-stimulation with wild-type NY-ESO-1157-165 (ELISA); type: in vivo, mice; settings: 10 μM wild-type peptide, 3 and 6 days; FIG. 17
Description: Supernatants were harvested and the concentration of IFN-γ measured by ELISA.

[18] = target: T3, HLA-A*0201 class I monomer of the iTopia Epitope Discovery System; experiment: iTopia affinity and off-rate assays
T3 construct: also called A0201 restricted MHC Class 1 molecules; MHC monomer

[19] = target: T3, HLA-A*0201 class I monomer of the …; experiment: iTopia off-rate assay
[20] = target: T3, HLA-A*0201 class I monomer of the …; experiment: iTopia affinity assay

Molecule: GLPSIPVHPI (T cell peptide epitope analog) [PSMA 288-297, reference compound]
- binding affinity / binding profile with HLA-A*0201 on T2 cells, in words [1]: generally superior binding characteristics
- priming of immune response against native PSMA288-297 (IFN-γ ELISPOT), in words [2]: poorly immunogenic
- cytotoxicity against LnCap human tumor cells [3]: able to lyse human tumor cells

Molecule: CC[C@H](C)[C@H](NC(=O)[C@H](CCCCN)NC(=O)[C@H](CCC(=O)O)NC(=O)[C@H](CO)NC(=O)[C@@H](NC(=O)[C@@H](N)CCCCN)C(C)C)C(=O)N[C@@H](Cc1ccccc1)C(=O)N[C@@H](Cc1ccc(O)cc1)C(=O)N[C@H](C(=O)O)C(C)C [SSX2 41-49 (A42V)]
- response against target cells expressing the natural peptide [4]: higher response
- Cross-reactivity and fct avidity (native to analogs)* [5]: 0.03
- in vivo cytotoxicity (% specific lysis), in words [6]: increased activity
- cytotoxicity against human tumor cells expressing natural SSX-2 41-49 epitope [7]: increased cytotoxicity

Molecule: PSMA 288-297(I297V): PSMA288-297 analog with I297V substitution
- priming of immune response against native PSMA288-297 (IFN-γ ELISPOT), in words [2]: increased priming
- cytotoxicity against LnCap human tumor cells [3]: effective in mediating cytotoxicity against LNCAP
- frequency of native epitope-specific T cells (ELISPOT) [8]: considerably higher

Molecule: YVDGTMSQNva (YVDGTMSQ[Nva]) [M370V V377Nva]
- cytotoxicity against 624.38 cells [9]: robust cytotoxicity

Molecule: S425F: PRAME425-433 analog with Phe for the Ser at P1 (FLLQHLIGL) [Peptide S425F]
- in vivo cytotoxicity against native epitope, in words [10]: capable of expanding the immunity against the native epitope
- percent binding, in words [11]: exceeded that range on the high side

Molecule: Ala substitution: PRAME425-433 analog with Ala at the PΩ anchor position (SLLQHLIGA; UniProt P78395 425-433, looked up, variant L433A)
- ED50 relative to native peptide [12]: more than 10 fold

Molecule: SLLQHLIGL [PRAME 425-433, reference compound]
- cytotoxicity against 624.38 human tumor cells [13]: able to lyse human tumor cells

Molecule: T{Nva}LQHLIG{Nle} (T[Nva]LQHLIG[Nle]) [S425T L426Nva L433Nle]
- in vivo cytotoxicity against native epitope, in words [10]: capable of expanding the immunity against the native epitope
- expansion of T cells specific against the native epitope (tetramer staining) [14]: significantly higher

Molecule: SNvaLMWITQV (S[Nva]LMWITQV) [Nyeso-1 157-165 (L158Nva, C165V))]
- stability of binding (half-time of dissociation), in words [15]: Significant increase in the stability
- in vivo cytotoxicity (% specific lysis), in words [16]: substantial, constant cytotoxicity
- IFN-gamma production upon ex vivo re-stimulation with wild-type peptide [17]: large levels of IFN-gamma more rapidly

Molecule: YMDGTMSQV [Tyrosinase 369-377, reference compound]
- cytotoxicity against 624.38 cells [9]: robust cytotoxicity

B1: PRAME425-433 analog with Phe at P1, Nva at P2 and Nle at PΩ (peptide)
peptide: F[Nva]LQHLIG[Nle]
- binding result [18]: binds

B2: PRAME425-433 analog with Nva at PΩ (peptide)
peptide: SLLQHLIG[Nva]
- t1/2 [19]: 17.2 h
- fold difference of ED50 against the native peptide [20]: ≤ 3 fold
